Reference: US20240408106A1, “BI-FUNCTIONAL COMPOUNDS AND METHODS FOR TARGETED UBIQUITINATION OF ANDROGEN RECEPTOR” (MONTELINO THERAPEUTICS, INC., priority 2021, published 2024)

tested on: human prostate cancer cell line, 22Rv1-Enz^R; assay: 22Rv1-Enz^R cell proliferation assay; format: cell-based; conditions: half maximal growth inhibition constant, 22Rv1-Enz^R cells, 6-day culture with cell media changed every 24 hours, read-out: 22Rv1-Enz^R proliferation assay GIC50
Experimental: The human prostate cancer cell line, 22Rv1 has been reported to express a high level of AR-V7. According to one procedure, 22Rv1 is seeded at 50,000 cells/well on a 24-well plate in quadruplicate and treated with test compounds in concentrations ranging up to 20 μM for four days. Standard culture media is RPMI-1640 supplemented with 10% fetal bovine serum. The test compound initially is dissolved in DMSO at 50 mM. This stock solution is then diluted as needed for the indicated concentrations. At the end of the four-day period, cells are harvested using 1% trypsin and counted using an automated cell counter.
Selected compounds may be tested in the human prostate cancer cell line, 22Rv1-Enz^R, as described in Geun Taek Lee et al., Molecular Cancer Therapeutics, 20:490-9 (2021). These procedures are similar to that described in Experimental Example 1, above, except that the assay conditions are a 6-day culture with cell media changed every 24 hours.
In the following Table (half maximal growth inhibition constant, GIC50): (+)-GIC50<200 μM; (++)-GIC50<100 μM; (+++)-GIC50<10 μM.

Compound | IC50 [µM]
Cc1ncsc1-c1ccc([C@H](C)NC(=O)[C@@H]2C[C@@H](O)CN2C(=O)[C@@H](NC(=O)CN2CCN(C(=O)COc3c(-c4csc(N5CCOCC5)n4)ccc(F)c3F)CC2)C(C)(C)C)cc1 [Example 1, (2S,4R)-1-((S)-2-(2-(4-(2-(2,3-difluoro-6-(2-morpholinothiazol-4-yl)phenoxy)acetyl)piperazin-1-yl)acetamido)-3,3-dimethylbutanoyl)-4-hydroxy-N-((S)-1-(4-(4-methylthiazol-5-yl)phenyl)ethyl)pyrrolidine-2-carboxamide] | < 10
Cc1ncsc1-c1ccc([C@H](C)NC(=O)[C@@H]2C[C@@H](O)CN2C(=O)[C@@H](NC(=O)CCN2CCN(C(=O)COc3c(-c4csc(N5CCOCC5)n4)ccc(F)c3F)CC2)C(C)(C)C)cc1 [Example 2, (2S,4R)-1-((S)-2-(3-(4-(2-(2,3-difluoro-6-(2-morpholinothiazol-4-yl)phenoxy)acetyl)piperazin-1-yl)propanamido)-3,3-dimethylbutanoyl)-4-hydroxy-N-((S)-1-(4-(4-methylthiazol-5-yl)phenyl)ethyl) pyrrolidine-2-carboxamide] | < 100
Cc1ncsc1-c1ccc([C@H](C)NC(=O)[C@@H]2C[C@@H](O)CN2C(=O)[C@@H](NC(=O)CCC(=O)N2CCCC(NC(=O)COc3c(-c4csc(N5CCOCC5)n4)ccc(F)c3F)C2)C(C)(C)C)cc1 (stereo partly drawn) [Example 3, (2S,4R)-1-((2S)-2-(4-(3-(2-(2,3-difluoro-6-(2-morpholinothiazol-4-yl)phenoxy)acetamido)piperidin-1-yl)-4-oxobutanamido)-3,3-dimethylbutanoyl)-4-hydroxy-N-((S)-1-(4-(4-methylthiazol-5-yl)phenyl)ethyl)pyrrolidine-2-carboxamide] | < 10
Cc1ncsc1-c1ccc([C@H](C)NC(=O)[C@@H]2C[C@@H](O)CN2C(=O)[C@@H](NC(=O)CCCCn2nncc2CCOc2c(-c3csc(N4CCOCC4)n3)ccc(F)c2F)C(C)(C)C)cc1 [Example 4, (2S,4R)-1-((S)-2-(5-(5-(2-(2,3-difluoro-6-(2-morpholinothiazol-4-yl)phenoxy)ethyl)-1H-1,2,3-triazol-1-yl)pentanamido)-3,3-dimethylbutanoyl)-4-hydroxy-N-((S)-1-(4-(4-methylthiazol-5-yl)phenyl)ethyl)pyrrolidine-2-carboxamide] | < 10
Cc1ncsc1-c1ccc([C@H](C)NC(=O)[C@@H]2C[C@@H](O)CN2C(=O)[C@@H](NC(=O)CCC(=O)N[C@H]2C[C@H](Oc3c(-c4csc(N5CCOCC5)n4)ccc(F)c3F)C2)C(C)(C)C)cc1 [Example 5, N1-((1r,3S)-3-(2,3-difluoro-6-(2-morpholinothiazol-4-yl)phenoxy)cyclobutyl)-N4-((S)-1-((2S,4R)-4-hydroxy-2-(((S)-1-(4-(4-methylthiazol-5-yl)phenyl)ethyl)carbamoyl)pyrrolidin-1-yl)-3,3-dimethyl-1-oxobutan-2-yl)succinamide] | < 100
COc1cc(C(=O)NCC2CCN(C(=O)COc3c(-c4csc(N5CCOCC5)n4)ccc(F)c3F)CC2)ccc1NC(=O)[C@@H]1N[C@@H](CC(C)(C)C)[C@](C#N)(c2ccc(Cl)cc2F)[C@H]1c1cccc(Cl)c1F [Example 7, (2R,3S,4R,5S)-3-(3-chloro-2-fluorophenyl)-4-(4-chloro-2-fluorophenyl)-4-cyano-N-(4-(((1-(2-(2,3-difluoro-6-(2-morpholinothiazol-4-yl)phenoxy)acetyl)piperidin-4-yl)methyl)carbamoyl)-2-methoxyphenyl)-5-neopentylpyrrolidine-2-carboxamide] | < 200
COc1cc(C(=O)NCCN2CCN(C(=O)COc3c(-c4csc(N5CCOCC5)n4)ccc(F)c3F)CC2)ccc1NC(=O)[C@@H]1N[C@@H](CC(C)(C)C)[C@](C#N)(c2ccc(Cl)cc2F)[C@H]1c1cccc(Cl)c1F [Example 8, (2R,3S,4R,5S)-3-(3-chloro-2-fluorophenyl)-4-(4-chloro-2-fluorophenyl)-4-cyano-N-(4-((2-(4-(2-(2,3-difluoro-6-(2-morpholinothiazol-4-yl)phenoxy)acetyl)piperazin-1-yl)ethyl)carbamoyl)-2-methoxyphenyl)-5-neopentylpyrrolidine-2-carboxamide] | < 100
COc1cc(C(=O)N2CCC(NC(=O)COc3c(-c4csc(N5CCOCC5)n4)ccc(F)c3F)CC2)ccc1NC(=O)[C@@H]1N[C@@H](CC(C)(C)C)[C@](C#N)(c2ccc(Cl)cc2F)[C@H]1c1cccc(Cl)c1F [Example 9, (2R,3S,4R,5S)-3-(3-chloro-2-fluorophenyl)-4-(4-chloro-2-fluorophenyl)-4-cyano-N-(4-(4-(2-(2,3-difluoro-6-(2-morpholinothiazol-4-yl)phenoxy)acetamido)piperidine-1-carbonyl)-2-methoxyphenyl)-5-neopentylpyrrolidine-2-carboxamide] | < 200
COc1cc(C(=O)NCCOCCn2cc(CCOc3c(-c4csc(N5CCOCC5)n4)ccc(F)c3F)nn2)ccc1NC(=O)[C@@H]1N[C@@H](CC(C)(C)C)[C@](C#N)(c2ccc(Cl)cc2F)[C@H]1c1cccc(Cl)c1F [Example 10, (2R,3S,4R,5S)-3-(3-chloro-2-fluorophenyl)-4-(4-chloro-2-fluorophenyl)-4-cyano-N-(4-((2-(2-(4-(2-(2,3-difluoro-6-(2-morpholinothiazol-4-yl)phenoxy)ethyl)-1H-1,2,3-triazol-1-yl)ethoxy)ethyl)carbamoyl)-2-methoxyphenyl)-5-neopentylpyrrolidine-2-carboxamide] | < 100
